Test results: patent US9675592B2, “Methods and compositions for bacteria infections” (priority 2013, dated 2017)

Columns and labels:
[1] = tested on: vraSR promoter (Pvra-lux reporter in strain 923); format: cell-based, Staphylococcus aureus; conditions: for RL Ox avg: Top 40 library, with oxacillin, compound at maximum non-GI conc; for vraSR repressing synergist: overall class from syn and rep
Experimental: In the secondary screen each microtiter plate contained either cells in TSB alone (16 replicates), cells with oxacillin (2 μg/mL, 31 replicates), or cells with test compound and oxacillin (2 μg/mL, 49 wells). Each compound was assayed in four separate biological replicates. […]

[2] = tested on: test strain 923 pPvra-lux; assay: Secondary screen / synergy confirmation of Top 40, relative growth with oxacillin; format: cell-based, Staphylococcus aureus; conditions: Top 40 library, compound at maximum non-GI conc
Experimental: In the secondary screen each microtiter plate contained either cells in TSB alone (16 replicates), cells with oxacillin (2 μg/mL, 31 replicates), or cells with test compound and oxacillin (2 μg/mL, 49 wells). Each compound was assayed in four separate biological replicates.
Synergy Confirmation of “Top 40”. […]

[3] = tested on: test strain (923 pPvra-lux); assay: Growth inhibition by compound alone (maximum non-growth-inhibitory concentration); format: cell-based, Staphylococcus aureus; conditions: for maximum non-GI conc: compound alone, maximum concentration where it did NOT inhibit growth
[4] = tested on: test strain 923 pPvra-lux (USA300 MRSA); assay: Primary screen, relative growth in presence of oxacillin; conditions: compound 10 μM with oxacillin 2 μg/mL, absorbance 24 h, <0.50 = dead cells = hit
[5] = tested on: vraSR promoter (Pvra-lux reporter in strain 923); assay: Primary screen, relative luminescence (vraSR expression); conditions: primary screen, compound 10 μM with oxacillin 2 μg/mL; <0.50 = vraSR repressed = hit

| Compound | RL Ox avg [1] | vraSR repressing synergist [1] | RG Ox avg [2] | maximum non-GI conc [3] [µg/mL] | RG avg (relative growth) [4] | RL avg (relative luminescence) [5] | concentration ([3]; compound tested alone, concentration where it did NOT inhibit growth (subinhibitory), Top 40 leads after secondary screen) [µg/mL] |
| --- | --- | --- | --- | --- | --- | --- | --- |
| O=C(Nc1nc(-c2ccccn2)cs1)c1ccc(Br)s1 [F0447-0273] | 0.08 | 1. confirmed | 0.39 | 40 | −0.08 | −0.09 | – |
| Cc1ccc(C)c2sc(NC(=O)c3cccs3)nc12 [F0600-1305] | 0.15 | 3. no effect | 0.94 | 400 | 0.36 | 0.22 | – |
| COc1ccc(Cl)c2sc(NC(=O)c3ccccc3NS(=O)(=O)c3ccc(F)cc3)nc12 [F2708-0138] | 0.69 | 3. no effect | 1.04 | 40 | 0.02 | −0.07 | 4 |
| Cc1nnsc1C(=O)Nc1nc(-c2cc3ccccc3o2)cs1 [F2962-0176] | 0.01 | 1. confirmed | 0.04 | 400 | 0.06 | −0.08 | – |
| Cc1ccc(-c2nnc(NC(=O)c3ccc(S(=O)(=O)N4CCc5ccccc5C4)cc3)o2)c(C)c1 [F2518-0213] | 0.33 | 3. no effect | 1.14 | 4 | 0.01 | −0.01 | – |
| Cc1ccc(S(=O)(=O)Nc2ccccc2C(=O)Nc2nc3c(Cl)ccc(Cl)c3s2)cc1 [F1813-0710] | 0.20 | 2. possible | 0.69 | 400 | −0.03 | 0.01 | – |
| CN(C)CCCNc1cc(C(C)(C)C)nc2c(-c3ccc(Cl)cc3)cnn12 [F3348-0373] | 0.80 | 3. no effect | 0.99 | 40 | 0.05 | 0.41 | – |
| O=C(Nc1ccc(OC(F)(F)F)cc1)N1CCN(c2cc(N3CCCC3)ncn2)CC1 [F5669-0378] | 0.71 | 3. no effect | 1.00 | 40 | −0.02 | −0.06 | – |
| Cn1cccc1C(CNC(=O)Nc1ccc(Cl)c(Cl)c1)N1CCOCC1 (stereo not shown) [F5833-1551] | 0.56 | 3. no effect | 0.99 | 40 | 0.01 | −0.03 | – |
| CC(=O)Nc1ccc(Nc2cc(C(C)(C)C)nc3c(-c4ccccc4)c(C)nn23)cc1 [F3348-0030] | 0.05 | 1. confirmed | 0.01 | 400 | 0.05 | 0.12 | – |
| O=C(Nc1cccc(C(F)(F)F)c1)N1CCN(c2ccc3nncn3n2)CC1 [F5123-0084] | 0.67 | 3. no effect | 1.08 | 40 | 0.02 | −0.08 | – |
| OC(c1ccccc1)c1nc2ccccc2n1Cc1ccc(Cl)c(Cl)c1 (stereo not shown) [F3068-0037] | 0.11 | 1. confirmed | −0.01 | 400 | −0.02 | 0.05 | – |
| O=C(Nc1ccccc1-c1nc2ccccc2[nH]1)c1ccccc1Br [F0015-0758] | 0.25 | 3. no effect | 0.92 | 400 | −0.06 | 0.33 | – |
| O=C(Nc1ccc(Cl)c(Cl)c1)N(Cc1ccsc1)Cc1ccco1 [F5854-2599] | 0.54 | 3. no effect | 1.01 | 40 | 0.01 | −0.06 | – |
| O=C(Nc1nnc(-c2ccccc2Cl)o1)c1ccc2ccccc2c1 [F1374-0082] | 0.08 | 2. possible | 0.67 | 40 | 0.08 | 0.35 | – |
| O=S(=O)(Nc1cccc(-c2nc3ccccc3s2)c1)c1ccc(Cl)s1 [F2399-0063] | 0.04 | 1. confirmed | −0.01 | 400 | 0.28 | 0.12 | – |
| CSc1cccc2sc(NC(=O)c3ccccc3NS(=O)(=O)c3ccc(C)cc3)nc12 [F2730-0247] | 0.15 | 1. confirmed | 0.23 | 400 | 0.31 | 0.16 | – |
| CN1CCN(c2nc(Nc3ccc(SC(F)F)cc3)c3cnn(-c4ccccc4)c3n2)CC1 [F2090-0579] | 0.11 | 1. confirmed | 0.30 | 400 | 0.00 | 0.04 | – |
| O=C(Nc1ccc2c(c1)OCO2)Nc1nc(-c2ccccn2)cs1 [F5772-8284] | 0.52 | 2. possible | 0.37 | 400 | 0.37 | −0.01 | – |
